Source: PMC12392461, “Beyond Estrogenicity: A Comparative Assessment of Bisphenol A and Its Alternatives in In Vitro Assays Questions Safety of Replacements” (Environmental Science & Technology, 2025)
Read-outs that look alike come from different tables or passages of the source.

Columns and labels:
Estrogen Receptor ERα [1] = target: T1, Estrogen Receptor ERα (Homo sapiens, UniProt P03372); assay: cell-based; conditions: for EC10, ERα (M): 10% of maximum effect of E2; for Efficacy % / EC10 / REPBPA: This Study; for EC10: ERα; for REPBPA: relative estrogenic potency vs BPA; for EC10, ERα: effect; for log(1/EC10) ERα: input of the ToxPi score, values up to 1.00; for SR-ScoreERα: SR-Score, sigma k=1, x=5; for Specificity ratio (SRbaseline) SRERα: against baseline cytotoxicity; for Specificity ratio (SRcytotoxicity) SRERα: against experimental cytotoxicity; for Relative effect potency REPERα: relative to BPA; for REPBPA,ERα (relative effect potency in relation to BPA): EC10,BPA/EC10,BPx
T1 sequence (P03372 311-547 limits assumed): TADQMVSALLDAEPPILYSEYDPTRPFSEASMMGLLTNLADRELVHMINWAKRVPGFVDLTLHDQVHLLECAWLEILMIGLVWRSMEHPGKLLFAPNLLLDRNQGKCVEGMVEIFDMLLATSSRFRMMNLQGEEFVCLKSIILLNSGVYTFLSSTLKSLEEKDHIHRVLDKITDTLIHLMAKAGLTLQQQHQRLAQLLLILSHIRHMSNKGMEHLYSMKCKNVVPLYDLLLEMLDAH
How it was run: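 Reporter cells (ERα-UAS-bla GripTite; PPARγ-UAS-bla) grew 24 h at 37 °C, 5% CO₂ in medium containing 2% charcoal-stripped FBS. Cytotoxicity, tracked as IncuCyte confluency, capped data at IC10 for EC10 derivation. Emax% is the fitted log-logistic maximum expressed against the reference chemical's maximum.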

Estrogen Receptor ERα [2] = target: T1, Estrogen Receptor ERα; assay: aCYP oxidation followed by ERα-UAS-bla GripTite assay (TK-Ratio of effect); assay type: cell-based; conditions: for EC10, after oxidation / EC10, before oxidation: ERα; for EC10, after oxidation: after abiotic CYP catalyst; for TKERα: TKERα-Ratio
Experimental: Cell culture conditions and bioassay protocols including response detection are provided in Text S2.1–2.4 and Table S3. − Cell viability was determined from cell confluency using an IncuCyte S3 Live-Cell Analysis System (Sartorius AG, Essen, Germany) before and after exposure, except for SH-SY5Y cells (live–dead staining with Nuclear Green LcS1 and propidium iodide, Abcam, UK). For metabolic activation experiments, cell viability was assessed using the ToxBLAzer DualScreen Kit (Thermo Fisher Scientific) to capture the remaining toxicity in ERα-UAS-bla GripTite after treatment with the aCYP catalyst (details in Text S2.4). […]
The TK-Ratio method was used to evaluate the impact of abiotic CYP oxidation on the potency of tested compounds. […]
For experiments with the preceding aCYP activation, ERα cell viability was additionally calculated from the readout of the ToxBLAzer reagent. The ToxBLAzer assay was conducted following the manufacturer's instructions (Thermo Fisher, Waltham, MA, U.S.).13 Fluorescence intensity was recorded at the start of the assay ( Fwavelength(0h)) and after a 2-hour incubation at […]
Cell viability was assessed based on the red fluorescence signal at 665 nm, applying eq. S11 for normalization.
Cell viability = F665nm(2h, sample)-F665nm(0h, average cell-free) (S11) F665nm(2h, average unexposed)-F665nm(0h, average cell-free) […]
the specific endpoint to avoid artifacts from cytotoxicity burst. 15
S2.5: Concentration-response curves (CRCs)
To avoid bias from cytotoxicity burst at higher concentrations, all concentrations exceeding the IC10 for cytotoxicity were excluded in the CRC modeling of effects but otherwise cytotoxicity and effects were fitted with the same model equations (response stands for cytotoxicity or effect). For ERα, AhR, ARE and PPARγ preferably a linear model was fitted to the linear portion of CRC up to maximum 30% effect (eq. S12),16 but in some cases it was necessary to choose a sigmoidal log-concentration-response model, specifically a log-logistic model (eq. S13), to derive effect concentrations and cytotoxicity. For mitochondrial toxicity and neurotoxicity, the […]
are not reporter gene assays. Common practice when using log-logistic models, e.g., the model implemented in tcpl package in R,17, 18 is that the minima and maxima are also fitted and only median effect concentrations AC50 are derived. […]
concentrations (EC10) for both linear and log-sigmoidal CRCs to allow absolute comparisons at the same effect level and for TR and SR -analysis. This was done using the AutomatedBioassayScreening19 published by Braun et al.,20 which also included an algorithm to choose the best model between eq. S12 and eq. S13.
Response (%) = slope × C (S12) […]
logEC =logEC − 1 ∙log (max−min − 100%) (S14)

[3] = Bioassay ERα, dosing range high, in M
[4] = Bioassay ERα, dosing range high, linear model fit, in M
[5] = Bioassay ERα, dosing range high, log-logistic model fit
[6] = Bioassay ERα, dosing range all, in M
[7] = Bioassay ERα, dosing range all, linear model fit, in M
[8] = Bioassay ERα, dosing range all, log-logistic model fit

SMILES | EC10, ERα (M) (Estrogen Receptor ERα [1]) | Efficacy % (Estrogen Receptor ERα [1]) [%] | EC10 (Estrogen Receptor ERα [1]; in M) | REPBPA (Estrogen Receptor ERα [1]) | EC10, ERα (Estrogen Receptor ERα [1]) [µM] | log(1/EC10) ERα (Estrogen Receptor ERα [1]) | EC10, after oxidation (Estrogen Receptor ERα [2]; Table S10, in M) | EC10, before oxidation (Estrogen Receptor ERα [2]; Table S10, in M) | TKERα (Estrogen Receptor ERα [2]; Table S10) | EC10, linear transformed (Estrogen Receptor ERα [1]; [6]) | EC10, linear (Estrogen Receptor ERα [1]; [7]) | logEC10 (Estrogen Receptor ERα [1]; [8]) | SR-ScoreERα (Estrogen Receptor ERα [1]) | Specificity ratio (SRbaseline) SRERα (Estrogen Receptor ERα [1]) | Specificity ratio (SRcytotoxicity) SRERα (Estrogen Receptor ERα [1]) | Emax (Estrogen Receptor ERα [1]; read-out: Emax%ERα) [%] | Relative effect potency REPERα (Estrogen Receptor ERα [1]) | further results
O=S(=O)(c1ccc(O)cc1)c1ccc(O)cc1 [BPS, 4,4'-Sulfonyldiphenol] | 1.43 × 10^–6 M | 65.69 | 1.43E-06 | 2.59E-01 | 1.43 | 0.75 | 1.48E-06 | 1.65E-06 | 1.115 |  |  |  |  |  |  |  |  | EC10, linear transformed (Estrogen Receptor ERα [1]; [3]): 1.15E-06; EC10, linear (Estrogen Receptor ERα [1]; [4]): 1.20E-06; logEC10 (Estrogen Receptor ERα [1]; [5]): -5.97; EC10, linear transformed (Estrogen Receptor ERα [1]; ERα bioassay, dosing range low, in M): 1.65E-06; EC10, linear (Estrogen Receptor ERα [1]; ERα bioassay, dosing range low, linear model, in M): 1.43E-06; logEC10 (Estrogen Receptor ERα [1]; ERα bioassay, dosing range low, log-logistic model): -5.76; Emax (Estrogen Receptor ERα [1]; read-out: Emax%ERα, maximum efficacy relative to E2): 66%
C=CCOc1ccc(S(=O)(=O)c2ccc(O)cc2)cc1 [BPS-MAE, 4-[[4-(Allyloxy)phenyl]sulfonyl]phenol] | 1.41 × 10^–5 M |  | 1.41E-05 | 2.63E-02 | 14.1 | 0.62 | 1.28E-05 | 1.26E-05 | 0.9842 | 1.26E-05 | 1.41E-05 | -4.90 | 1.00 |  |  |  |  | 
Oc1ccc(Sc2ccc(O)cc2)cc1 [BPT, 4,4'-Thiodiphenol] | 7.27 × 10^–7 M |  | 7.27E-07 | 5.09E-01 | 0.727 | 0.78 | 1.15E-06 | 2.87E-07 | 0.2502 | 2.87E-07 | 7.27E-07 | -6.54 | 1.00 |  |  |  |  | EC10, after oxidation (Estrogen Receptor ERα [2]; Table S11, in M): 2.70E-06; EC10, before oxidation (Estrogen Receptor ERα [2]; Table S11, in M): 2.28E-06; TKERα (Estrogen Receptor ERα [2]; Table S11): 0.85
Cc1ccc(S(=O)(=O)NC(=O)Nc2ccc(Cc3ccc(NC(=O)NS(=O)(=O)c4ccc(C)cc4)cc3)cc2)cc1 [BTUM, 4,4'-Bis(p-tolylsulfonylureido)diphenylmethane] |  |  |  |  |  |  |  |  |  |  |  | no effect |  |  |  |  |  | EC10, linear (Estrogen Receptor ERα [1]; Bioassay ERα, dosing range all, linear model fit): no effect; ERα activation (Estrogen Receptor ERα [1]; at noncytotoxic concentrations): did not activate ERα at noncytotoxic concentrations; EC10, before oxidation (Estrogen Receptor ERα [2]; Table S10): no effect; EC10, after oxidation (Estrogen Receptor ERα [2]; Table S10): no effect; outcome of aCYP experiments (Estrogen Receptor ERα [2]; both experimental setups): inconclusive results
COC(=O)C(c1ccc(O)cc1)c1ccc(O)cc1 [Bz, Methyl bis(4-hydroxyphenyl)acetate] | 1.06 × 10^–6 M | 32.40 | 1.06E-06 | 3.49E-01 | 1.06 | 0.76 | 1.36E-06 | 9.90E-07 | 0.7263 |  |  |  | 1.00 | 245.73 | 956.87 | 32 | 0.35 | EC10, linear transformed (Estrogen Receptor ERα [1]; [3]): 1.23E-08; EC10, linear (Estrogen Receptor ERα [1]; [4]): 7.84E-07; logEC10 (Estrogen Receptor ERα [1]; [5]): -6.83; EC10, linear transformed (Estrogen Receptor ERα [1]; Bioassay ERα, dosing range low, in M): 9.90E-07; EC10, linear (Estrogen Receptor ERα [1]; Bioassay ERα, dosing range low, linear model fit, in M): 1.06E-06; logEC10 (Estrogen Receptor ERα [1]; Bioassay ERα, dosing range low, log-logistic model fit): -6.00; SRcytotoxicity (ERα) (Estrogen Receptor ERα [1]; IC10/EC10): 957
O=C(OCc1ccccc1)c1ccc(O)cc1 [BzPB, Benzyl 4-hydroxybenzoate] | 3.02 × 10^–6 M | 53.46 | 3.02E-06 | 1.23E-01 | 3.02 | 0.70 | 4.95E-06 | 3.07E-06 | 0.6192 | 3.07E-06 | 1.96E-06 | -5.52 | 1.00 | 5.49 | 13.93 | 53 | 0.12 | 
CC(C)Oc1ccc(S(=O)(=O)c2ccc(O)cc2)cc1 [D8, 4-((4-Isopropoxyphenyl)sulfonyl)phenol] | 1.12 × 10^–5 M | 18.50 | 1.12E-05 | 3.29E-02 | 11.2 | 0.63 |  | 1.21E-05 |  | 1.21E-05 | 1.41E-05 | -4.95 | 1.00 | 5.88 | 16.41 | 18 | 0.0329 | REPBPA,ERα (relative effect potency in relation to BPA) (Estrogen Receptor ERα [1]): 0.033
CC1(C)[C@H](O)C(C)(C)[C@H]1O [t-TMCD, trans-2,2,4,4-Tetramethyl-1,3-cyclobutanediol] | 3.03 × 10^–3 M | <20 | 3.03E-03 | 1.22E-04 | 3030 | 0.32 |  | 3.18E-03 |  |  |  |  | 0.00922 | 0.32 |  |  | 0.000122 | REPBPA,ERα (relative effect potency in relation to BPA) (Estrogen Receptor ERα [1]): 1.2 × 10^–4
